IC50 data for 19 molecules are collected here from patent US20070219203A1, “Arylalkylamino-substituted quinazoline analogues” (Neurogen Corporation, priority 2004, published 2007).

Usually IC50 stands for the concentration that gives 50% inhibition.

The target in the first assay is T1, human capsaicin receptor (Homo sapiens, UniProt Q8NER1).
T1 construct: expressed in transfected cells
T1 sequence (Q8NER1 whole entry): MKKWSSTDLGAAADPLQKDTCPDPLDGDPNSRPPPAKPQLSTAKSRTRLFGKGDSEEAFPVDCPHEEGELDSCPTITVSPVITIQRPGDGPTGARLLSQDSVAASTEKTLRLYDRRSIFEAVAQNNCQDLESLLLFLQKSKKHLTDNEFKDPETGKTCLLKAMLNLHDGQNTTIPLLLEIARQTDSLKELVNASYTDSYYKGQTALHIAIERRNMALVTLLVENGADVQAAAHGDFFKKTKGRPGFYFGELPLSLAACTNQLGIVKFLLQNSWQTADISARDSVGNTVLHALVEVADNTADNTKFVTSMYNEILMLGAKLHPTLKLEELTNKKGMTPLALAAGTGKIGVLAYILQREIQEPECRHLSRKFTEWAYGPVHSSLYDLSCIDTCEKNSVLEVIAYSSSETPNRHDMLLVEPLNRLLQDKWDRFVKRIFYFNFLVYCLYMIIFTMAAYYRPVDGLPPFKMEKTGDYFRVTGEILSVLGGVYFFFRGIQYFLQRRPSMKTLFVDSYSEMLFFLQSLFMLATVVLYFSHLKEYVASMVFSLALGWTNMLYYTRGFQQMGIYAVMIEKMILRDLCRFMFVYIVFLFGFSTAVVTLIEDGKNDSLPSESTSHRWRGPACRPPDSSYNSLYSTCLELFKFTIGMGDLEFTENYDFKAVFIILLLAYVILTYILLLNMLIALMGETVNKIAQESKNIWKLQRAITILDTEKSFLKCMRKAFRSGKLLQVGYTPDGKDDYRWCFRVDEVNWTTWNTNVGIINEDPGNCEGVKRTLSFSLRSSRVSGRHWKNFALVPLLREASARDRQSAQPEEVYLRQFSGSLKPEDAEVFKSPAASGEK
Nature of the assay: Calcium mobilization assay, antagonist activity (Example 6). In kind it is cell-based. To be noted: Table I; 50% decrease in fluorescence response of cells expressing human capsaicin receptor exposed to capsaicin. In a few lines:
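Stable HEK293 clones expressing full-length human receptor, loaded with Fluo-3 in KRH buffer pH 7.4. Test compounds at 1 μM to 5 μM final preincubated 0.5 to 6 hours at room temperature, then challenged with capsaicin at its EC50; IC50 is 50% decrease in FLIPR calcium response.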
On the technique in general: Calcium assays in cells follow changes in intracellular calcium, usually with a dye or a luminescent sensor.
`CC(C)COCc1nc(NCCc2ccc(Cl)cc2)c2ccc(-c3ncccc3C(F)(F)F)nc2n1` [Compound 35, N-[2-(4-chlorophenyl)ethyl]-2-(isobutoxymethyl)-7-[3-(trifluoromethyl)pyridin-2-yl]pyrido[2,3-d]pyrimidin-4-amine]: the IC50 is at most 1000 nM.

On to `CC(C)COCc1nc(NCCc2ccccc2Cl)c2ccc(-c3ncccc3Cl)nc2n1` [Compound 47, N-[2-(2-chlorophenyl)ethyl]-7-(3-chloropyridin-2-yl)-2-(isobutoxymethyl)pyrido[2,3-d]pyrimidin-4-amine], for which the IC50 was at most 1000 nM.

Regarding `CCOCc1nc(NCCc2ccccc2Cl)c2ccc(-c3ncccc3Cl)nc2n1` [Compound 54, N-[2-(2-chlorophenyl)ethyl]-7-(3-chloropyridin-2-yl)-2-(ethoxymethyl)pyrido[2,3-d]pyrimidin-4-amine], the IC50 was at most 1000 nM.

Consider `COc1ccccc1CCNc1nc(COCC(C)C)nc2nc(-c3ncccc3C(F)(F)F)ccc12` [Compound 41, 2-(isobutoxymethyl)-N-[2-(2-methoxyphenyl)ethyl]-7-[3-(trifluoromethyl)pyridin-2-yl]pyrido[2,3-d]pyrimidin-4-amine], for which the IC50 is at most 1000 nM.

Turning to `FC(F)(F)c1ccc(CCNc2ncnc3cc(-c4ncccc4C(F)(F)F)ccc23)cc1` [Compound 17, N-{2-[4-(trifluoromethyl)phenyl]ethyl}-7-[3-(trifluoromethyl)pyridin-2-yl]quinazolin-4-amine], the IC50 was at most 1000 nM.

As to `Cc1nc(NCCc2ccccc2Cl)c2ncc(-c3ncccc3Cl)cc2n1` [Compound 30, N-[2-(2-chlorophenyl)ethyl]-7-(3-chloropyridin-2-yl)-2-methylpyrido[3,2-d]pyrimidin-4-amine], the IC50 was at most 1000 nM.

Take `CC(C)COCc1nc(NCCc2ccccc2F)c2ccc(-c3ncccc3Cl)nc2n1` [Compound 44, 7-(3-chloropyridin-2-yl)-N-[2-(2-fluorophenyl)ethyl]-2-(isobutoxymethyl)pyrido[2,3-d]pyrimidin-4-amine]: the IC50 is at most 1000 nM.

Consider `C[C@@H](CNc1ncnc2cc(-c3ncccc3C(F)(F)F)ccc12)c1ccccc1` [Compound 23, N-[(2R)~2-phenylpropyll]-7-[3-(trifluoromethyl)pyridin-2-yl]quinazolin-4-amine], for which the IC50 is at most 1000 nM.

Regarding `CC(C)COCc1nc(NCCc2cccc(C(F)(F)F)c2)c2ccc(-c3ncccc3C(F)(F)F)nc2n1` [Compound 39, 2-(isobutoxymethyl)-N-{2-[3-(trifluoromethyl)phenyl]ethYl}-7-[3-(trifluoromethyl)pyridin-2-yl]pyrido[2,3-d]pyrimidin-4-amine], the half-maximal inhibitory concentration (IC50) is at most 1000 nM.

In the case of `Cc1nc(NCCc2ccccc2Cl)c2ccc(-c3ncccc3C)nc2n1` [Compound 32, N-[2-(2-chlorophenyl)ethyl]-2-methyl-7-(3-methylpyridin-2-yl)pyrido[2,3-d]pyrimidin-4-amine], the IC50 was at most 1000 nM.

Consider `FC(F)(F)c1cccnc1-c1ccc2c(NCCc3ccccc3)ncnc2c1` [Compound 22, N-(2-phenylethyl)-7-[3-(trifluoromethyl)pyridin-2-yl]quinazolin-4-amine], for which the IC50 is at most 1000 nM.

With `CC(C)COCc1nc(NCCc2ccccc2C(F)(F)F)c2ccc(-c3ncccc3C(F)(F)F)nc2n1` [Compound 38, 2-(isobutoxymethyl)-N-{2-[2-(trifluoromethyl)phenyl]ethyl}-7-[3-(trifluoromethyl)pyridin-2-yl]pyrido[2,3-d]pyrimidin-4-amine], the IC50 is at most 1000 nM.

Turning to `Fc1ccc(CCNc2ncnc3cc(-c4ncccc4C(F)(F)F)ccc23)cc1` [Compound 8, N-[2-(4-fluorophenyl)ethyl]-7-[3-(trifluoromethyl)pyridin-2-yl]quinazolin-4-amine], the IC50 was at most 1000 nM.

The same assay, now with this note: Table II; 50% decrease in fluorescence response of cells expressing human capsaicin receptor exposed to capsaicin.
Turning to `FC(F)(F)c1cccnc1-c1ccc2c(NCCCc3ccccc3)ncnc2c1` [Compound 63, (3-Phenyl-propyl)-[7-(3-trifluoromethyl-pyridin-2-yl)-quinazolin-4-yl]-amine], the IC50 is at most 1000 nM.

On to `FC(F)(F)c1cccnc1-c1ccc2c(NC3CCc4ccccc43)ncnc2c1` (stereo not shown) [Compound 78, Indan-1-yl-[7-(3-trifluoromethyl-pyridin-2-yl)-quinazolin-4-yl]-amine], for which the IC50 is at most 1000 nM.

Consider `CCCCCCN(CCCCCC)Cc1nc(NCCc2ccccc2)c2ccc(-c3ncccc3C(F)(F)F)cc2n1` [Compound 173, [2-Dihexylaminomethyl-7-(3-trifluoromethyl-pyridin-2-yl)-quinazolin-4-yl]-phenethyl-amine], for which the IC50 is at most 1000 nM.

In the case of `Cc1cccc(CCNc2ncnc3cc(-c4ncccc4C(F)(F)F)ccc23)c1` [Compound 66, (2-m-Tolyl-ethyl)-[7-(3-trifluoromethyl-pyridin-2-yl)-quinazolin-4-yl]-amine], the IC50 was at most 1000 nM.

With `CC(C)CC(CNc1ncnc2cc(-c3ncccc3C(F)(F)F)ccc12)c1ccccc1` (stereo not shown) [Compound 72, (4-Methyl-2-phenyl-pentyl)-[7-(3-trifluoromethyl-pyridin-2-yl)-quinazolin-4-yl]-amine], the IC50 was at most 1000 nM.

With `CC1(C)CCCN(Cc2nc(NCCc3ccccc3)c3ccc(-c4ncccc4C(F)(F)F)cc3n2)C1` [Compound 100, [2(3,3-Dimethyl-piperidin-1-ylmethyl)-7-(3-trifluoromethyl-pyridin-2-yl)-quinazolin-4-yl]-phenethyl-amine], the IC50 is at most 1000 nM.
